biological target: T1, F508del CFTR (Homo sapiens, UniProt P13569, DEL508-508); assay: Equivalent current assay in primary CF airway epithelial cells (Corrector Activity, NAUC normalized to 3 μM VX809); type: cell-based; details: NAUC as % of positive control (VX-809)
T1 construct: Primary CF airway epithelial cells were obtained from the UNC Cystic Fibrosis Tissue Procurement and Cell Culture Core; host or cells: primary CF airway epithelial cells
Method: Primary CF airway epithelial cells were obtained from the UNC Cystic Fibrosis Tissue Procurement and Cell Culture Core. The cells are grown at 37° C. in a Heracell 150i incubator using growth media (BEGM, Fischer). Cells were then transferred to differentiation media (airway liquid interface media (ALI) media; Lechner J F and LaVeck M A, J. Tissue Culture Methods 1985, 9: 43-48) for a minimum of 4 weeks on coated Costar transwells. Two days before the assay the mucus on the apical surface of the cells was aspirated after incubating with 200 μL of differentiation media for at least thirty (30) minutes. One day before the assay test compounds were added to the basolateral surface of the cells at various test concentrations dissolved in DMSO. Duplicate wells were prepared giving a n=4 or n=6 protocol.
Cells were treated for 24 hours with various combinations and concentrations of the test articles, reference standard (3 μM VX809, positive control). Compounds stock solutions were prepared in DMSO and diluted 1/1000 into ALI media to their final assay concentration. Cells were treated with combination solutions (2 mL of each dilution) and incubated at 37° C. for 24 h.
For the equivalent current assay, cells on six Transwell (24-well) plates were treated. Each Transwell plate was filled with 200 μl of HBS on the apical surface and 2 ml on the basolateral surface. Plates were placed horizontally in a heated mount at 37° C. and equilibrated for 30 minutes. Resting current was measured for 15 min and then blocked by the apical addition of 5 μM benzamil. After 20 min, CFTR activator (10 μM forskolin) and potentiator (either 1 μM VX-770 or 3 μM FDL176) were added to both the apical and basolateral side to stimulate CFTR. An increase in chloride current is seen as an upward deflection of the trace. After another 60 min, CFTR-172 (a CFTR inhibitor, 20 μM) and/or bumetanide (20 uM) was added to block CFTR mediated chloride current.
The raw data, voltage vs. time and resistance vs. time for the equivalent current assay (sampling interval: 6 minutes) were transferred to Excel (Microsoft Office Professional, version 14.0.7106.5003) for analysis. CFTR specific current was computed from I=V/R (Ohms Law), the average amplitude of the increase in current elicited upon addition forskolin and ending upon addition of the CFTR channel specific blocker CFTR-172. This average is equivalent to the sum of the average forskolin activated and the average VX770-potentiated currents. The average current measured in vehicle (0.1% DMSO) treated cells, IV, was subtracted from the current for the test article, ITA, or from the corrector reference standard VX809 (3 uM, ISTD). For replicate measurements, the averaged vehicle subtracted response for the test article, was normalized to the averaged vehicle subtracted response of the reference corrector VX809 (3 μM).
INSC=(ITA−IV)(ave)/(ISTD−IV)(ave) (Equation 1)
A second endpoint, for the equivalent current assay, evaluated was NAUC, the normalized area under the curve (AUC) measuring the response after addition of forskolin and potentiator to the time point right before the addition of the CFTR inhibitor. The AUC is effectively the average response multiplied by the duration of the response. The AUC of the test article, AUCTA was then corrected by subtracting the average vehicle response, AUCV,ave over the same time range, and normalized as for the inhibitor-sensitive current to the difference of the corrector reference standard VX809 (3 μM VX809r,ave and the vehicle response:
NAUCTA=[AUCTA−AUCV,ave]/[AUCVx809r,ave−AUCV,ave] (Equation 2).
The normalized value for DMSO is 0.0 and for VX-809 alone is 1.0 for both of these equations.
Experiments were run with a minimum of n=4 replicates per concentration. Since the distribution for the ratio of two normal distributions is a Cauchy distribution, the median value must be used for the average and the average deviation must be used for the error of all normalized data. […]

T1 sequence (P13569 with tags, fused parts or gaps DEL508-508): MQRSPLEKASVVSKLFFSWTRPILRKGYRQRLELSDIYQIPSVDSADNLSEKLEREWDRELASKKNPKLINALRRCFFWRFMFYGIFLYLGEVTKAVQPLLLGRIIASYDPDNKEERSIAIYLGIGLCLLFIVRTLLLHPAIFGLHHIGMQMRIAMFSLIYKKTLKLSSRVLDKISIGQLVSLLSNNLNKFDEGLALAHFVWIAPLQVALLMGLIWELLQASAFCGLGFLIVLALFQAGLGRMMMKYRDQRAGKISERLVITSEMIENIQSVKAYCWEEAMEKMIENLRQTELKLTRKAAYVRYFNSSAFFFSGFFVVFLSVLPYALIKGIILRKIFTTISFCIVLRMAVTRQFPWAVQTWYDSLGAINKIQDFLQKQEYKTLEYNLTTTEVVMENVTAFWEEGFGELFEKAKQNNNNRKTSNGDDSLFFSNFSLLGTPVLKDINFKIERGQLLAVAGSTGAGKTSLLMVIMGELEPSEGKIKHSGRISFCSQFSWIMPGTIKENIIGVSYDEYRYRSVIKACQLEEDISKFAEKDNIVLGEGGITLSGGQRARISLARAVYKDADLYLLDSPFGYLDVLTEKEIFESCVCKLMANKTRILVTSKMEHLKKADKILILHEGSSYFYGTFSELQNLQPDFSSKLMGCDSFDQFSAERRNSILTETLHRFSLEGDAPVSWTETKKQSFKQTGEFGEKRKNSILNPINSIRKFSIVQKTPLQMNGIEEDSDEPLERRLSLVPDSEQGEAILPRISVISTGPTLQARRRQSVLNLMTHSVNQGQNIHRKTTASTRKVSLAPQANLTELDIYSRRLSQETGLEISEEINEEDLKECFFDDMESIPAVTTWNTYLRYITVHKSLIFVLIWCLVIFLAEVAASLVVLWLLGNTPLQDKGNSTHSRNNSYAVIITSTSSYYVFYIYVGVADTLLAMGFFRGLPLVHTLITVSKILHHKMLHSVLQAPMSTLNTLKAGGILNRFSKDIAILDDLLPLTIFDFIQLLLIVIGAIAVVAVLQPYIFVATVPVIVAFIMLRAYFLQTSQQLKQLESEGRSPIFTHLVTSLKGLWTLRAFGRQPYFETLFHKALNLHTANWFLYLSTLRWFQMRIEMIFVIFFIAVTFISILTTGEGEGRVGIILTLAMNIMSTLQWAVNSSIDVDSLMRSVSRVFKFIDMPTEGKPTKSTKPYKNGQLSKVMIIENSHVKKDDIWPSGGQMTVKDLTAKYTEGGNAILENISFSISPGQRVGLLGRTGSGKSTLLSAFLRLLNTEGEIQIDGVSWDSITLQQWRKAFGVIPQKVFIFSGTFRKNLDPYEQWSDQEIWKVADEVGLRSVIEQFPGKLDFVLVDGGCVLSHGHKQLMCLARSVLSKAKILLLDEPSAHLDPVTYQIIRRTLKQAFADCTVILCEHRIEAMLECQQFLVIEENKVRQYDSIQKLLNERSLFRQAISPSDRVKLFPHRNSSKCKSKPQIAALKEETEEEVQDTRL

Corr Activity (NAUC)	Compound
+++ (NAUC>70% of positive control)	CCN(C(=O)Cn1nc(-c2cc(C#N)cc(OC(F)(F)F)c2)c2[nH]cnc2c1=O)c1ccc2c(c1)OC(F)(F)O2 [Example 285]
+ (NAUC<40% of positive control)	CN(C(=O)Cn1nc(-c2cccc(Cl)c2)c2oc(C(=O)N3CCCC3)cc2c1=O)c1ccc2c(c1)OC(F)(F)O2 [Example 65, 2-(7-(3-chlorophenyl)-4-oxo-2-(pyrrolidine-1-carbonyl)furo[2,3-d]pyridazin-5(4H)-yl)-N-(2,2-difluorobenzo[d][1,3]dioxol-5-yl)-N-methylacetamide]
+++ (NAUC>70% of positive control)	CCN(C(=O)Cn1nc(-c2cccc(C#N)c2)c2oc(C3CC3)cc2c1=O)c1ccc2c(c1)OC(F)(F)O2 [Example 231]
+++ (NAUC>70% of positive control)	Cc1cc(C#N)cc(-c2nn(CC(=O)N3CCCc4c3ccc3c4OC(F)(F)O3)c(=O)c3ccoc23)c1 [Example 163]
+++ (NAUC>70% of positive control)	Cc1c(N(C)C(=O)Cn2nc(-c3cc(F)cc(C#N)c3)c3oc(C(=O)NC(C)(C)C)cc3c2=O)ccc2c1OC(F)(F)O2 [Example 139]
+++ (NAUC>70% of positive control)	CCN(C(=O)Cn1nc(-c2cc(F)cc(C#N)c2)c2[nH]cnc2c1=O)c1ccc2c(c1)OC(F)(F)O2 [Example 242]
+++ (NAUC>70% of positive control)	N#Cc1cccc(-c2nn(CC(=O)N(c3ccc4c(c3)OC(F)(F)O4)C3CCOC3)c(=O)c3ccoc23)c1 (stereo not drawn) [Example 39]
++ (NAUC 70-40% of positive control)	N#Cc1cc(-c2nn(CC(=O)N(c3ccc4c(c3)OC(F)(F)O4)C3CC3)c(=O)c3nc[nH]c23)ccc1N1CCCCC1 [Example 491]
++ (NAUC 70-40% of positive control)	N#Cc1cc(Cl)cc(-c2nn(CC(=O)N3CCCc4c3ccc3c4OC(F)(F)O3)c(=O)c3ccoc23)c1 [Example 103]
+++ (NAUC>70% of positive control)	CCN(C(=O)Cn1nc(-c2cc(C)cc(C#N)c2)c2oc(C(=O)NC(C)(C)C(F)(F)F)cc2c1=O)c1ccc2c(c1)OC(F)(F)O2 [Example 150]
+++ (NAUC>70% of positive control)	CN(C(=O)Cn1nc(-c2cc(F)cc(C#N)c2)c2[nH]cnc2c1=O)c1ccc2c(c1)OC(F)(F)O2 [Example 216, 2-(7-(3-cyano-5-fluorophenyl)-4-oxo-1,4-dihydro-5H-imidazo[4,5-d]pyridazin-5-yl)-N-(2,2-difluorobenzo[d][1,3]dioxol-5-yl)-N-methylacetamide]
+ (NAUC<40% of positive control)	CCN(C(=O)Cn1nc(-c2ccc(CC#N)c(F)c2)c2[nH]cnc2c1=O)c1ccc2c(c1)OC(F)(F)O2 [Example 317]
+ (NAUC<40% of positive control)	CCN(C(=O)Cn1nc(-c2ccc(C(F)(F)F)c(Cl)c2)c2[nH]cnc2c1=O)c1ccc2c(c1)OC(F)(F)O2 [Example 328]
++ (NAUC 70-40% of positive control)	Cc1cc(C#N)cc(-c2nn(CC(=O)N(C)c3cc4c(cc3C)OC(F)(F)O4)c(=O)c3cc(C(=O)NC(C)(C)C)oc23)c1 [Example 134]
+++ (NAUC>70% of positive control)	Cc1cc2c(=O)n(CC(=O)N(c3ccc4c(c3)OC(F)(F)O4)C3CC3)nc(-c3cc(Cl)cc(Cl)c3)c2o1 [Example 77]
+ (NAUC<40% of positive control)	CCN(C(=O)Cn1nc(-c2ccc3c(ccn3C)c2)c2[nH]cnc2c1=O)c1ccc2c(c1)OC(F)(F)O2 [Example 290]
++ (NAUC 70-40% of positive control)	CCN(C(=O)Cn1nc(-c2cccc(OC(C)(C)C)c2)c2occc2c1=O)c1ccc2c(c1)OC(F)(F)O2 [Example 89]
+ (NAUC<40% of positive control)	O=C(Cn1nc(-c2cc(Cl)cc(CO)c2)c2[nH]cnc2c1=O)N(c1ccc2c(c1)OC(F)(F)O2)C1CC1 [Example 405]

Corr Activity (NAUC)	Compound
+ (NAUC<40% of positive control)	CCN(C(=O)Cn1nc(-c2cc(C(F)(F)F)cc(C(F)(F)F)c2)c2[nH]cnc2c1=O)c1ccc2c(c1)OC(F)(F)O2 [Example 260]
+++ (NAUC>70% of positive control)	CCOC(=O)c1ccc(-c2nn(CC(=O)N(CC)c3ccc4c(c3)OC(F)(F)O4)c(=O)c3ccoc23)cc1C#N [Example 96]
+++ (NAUC>70% of positive control)	CCN(C(=O)Cn1nc(-c2cccc(C#N)c2)c2oc(C(=O)NC3(C(F)(F)F)CC3)cc2c1=O)c1ccc2c(c1)OC(F)(F)O2 [Example 153]
++ (NAUC 70-40% of positive control)	CCN(C(=O)Cn1nc(-c2ccc(C#N)c(Cl)c2)c2[nH]cnc2c1=O)c1ccc2c(c1)OC(F)(F)O2 [Example 336]
+ (NAUC<40% of positive control)	O=C(Cn1nc(-c2ccc(OCC(F)(F)F)c(F)c2)c2[nH]cnc2c1=O)N(c1ccc2c(c1)OC(F)(F)O2)C1CC1 [Example 457]
+++ (NAUC>70% of positive control)	N#Cc1cc(-c2nn(CC(=O)N(c3ccc4c(c3)OC(F)(F)O4)C3CC3)c(=O)c3nc[nH]c23)ccc1N1CCCC1 [Example 470]
+++ (NAUC>70% of positive control)	CCN(C(=O)Cn1nc(-c2cc(C#N)cc(C(C)(C)C)c2)c2oc(C(=O)NC(C)(C)C)cc2c1=O)c1ccc2c(c1)OC(F)(F)O2 [Example 130]
++ (NAUC 70-40% of positive control)	CCN(C(=O)Cn1nc(-c2cc(Cl)cc(C#N)c2)c2oc(C3CCC3)cc2c1=O)c1ccc2c(c1)OC(F)(F)O2 [Example 237]
+++ (NAUC>70% of positive control)	N#Cc1cc(F)cc(-c2nn(CC(=O)N(c3ccc4c(c3)OC(F)(F)O4)C3CC3)c(=O)c3nc[nH]c23)c1 [Example 368]
+ (NAUC<40% of positive control)	O=C(Cn1nc(-c2ccc(C(F)(F)F)c(Cl)c2)c2[nH]cnc2c1=O)N(c1ccc2c(c1)OC(F)(F)O2)C1CC1 [Example 448]
+++ (NAUC>70% of positive control)	CCN(C(=O)Cn1nc(-c2cc(C)cc(C#N)c2)c2[nH]cnc2c1=O)c1cc2c(cc1C)OC(F)(F)O2 [Example 248]
++ (NAUC 70-40% of positive control)	CCN(C(=O)Cn1nc(-c2cc(F)cc(C#N)c2)c2oc(C3CCC3)cc2c1=O)c1ccc2c(c1)OC(F)(F)O2 [Example 238]
++ (NAUC 70-40% of positive control)	CCN(C(=O)Cn1nc(-c2cccc(OC(F)(F)F)c2)c2oc(C(=O)NC(C)(C)C)cc2c1=O)c1ccc2c(c1)OC(F)(F)O2 [Example 124]
+++ (NAUC>70% of positive control)	CN(C(=O)Cn1nc(-c2cc(Cl)cc(Cl)c2)c2occc2c1=O)c1ccc2c(c1)OC(F)(F)O2 [Example 42]
+++ (NAUC>70% of positive control)	CCN(C(=O)Cn1nc(-c2cccc(C#N)c2)c2occc2c1=O)c1ccc2c(c1F)OC(F)(F)O2 [Example 60]
+++ (NAUC>70% of positive control)	CCN(C(=O)Cn1nc(-c2cc(Cl)cc(C#N)c2)c2occc2c1=O)c1ccc2c(c1C)OC(F)(F)O2 [Example 172]
+++ (NAUC>70% of positive control)	CCN(C(=O)Cn1nc(-c2ccc3cc(OC)ccc3c2)c2[nH]cnc2c1=O)c1ccc2c(c1)OC(F)(F)O2 [Example 289]

Compound	Corr Activity (NAUC)
CCN(C(=O)Cn1nc(-c2cc(C#N)cc(OCCO)c2)c2occc2c1=O)c1ccc2c(c1)OC(F)(F)O2 [Example 214]	++ (NAUC 70-40% of positive control)

— patent US20220402925A1, “COMPOUNDS AND METHODS FOR THE TREATMENT OF CYSTIC FIBROSIS” (Flatley Discovery Lab, LLC, priority 2019, published 2022)
